Source: publication PMC9501983, “Transport and Permeation Properties of Dapivirine: Understanding Potential Drug-Drug Interactions” (Pharmaceutics, 2022)

Experiment: DPV tissue permeability across excised human ectocervical tissue (in-line cell)
Type: in vitro ADME
Settings: female, human; 182 µM DPV alone in vaginal fluid simulant pH 4.2, 360 min; read-out: Papp across human cervical tissue
Excerpt: Freshly excised human ectocervical tissue samples from 6 pre-menopausal women were obtained through the Pitt Biospecimen Core at the University of Pittsburgh under an IRB-approved protocol (IRB# PRO09110431). Tissue samples were immersed in ice-cold Dulbecco’s modified Eagle medium during transfer from the surgery site to the laboratory. Tissue samples were then processed as previously reported, where excess stromal tissue was removed using a scalpel, and the epithelium was isolated using a Stadie-Riggs tissue slicer. The isolated epithelium sections were then mounted onto the in-line cell apparatus (PermeGear, Cranford, NJ, USA), a flow-through type Franz cell, with the epithelial side facing the apical compartment. A small piece of tissue sample was fixed in 10% formalin as the pre-treatment control for histology evaluation.
Vaginal fluid simulant was used to prepare drug solutions. Vaginal fluid simulant was prepared using a reported formulation (3.51 g L^−1 sodium chloride, 1.40 g L^−1 potassium hydroxide, 0.22 g L^−1 calcium hydroxide, 0.018 g L^−1 bovine serum albumin, 2.00 g L^−1 lactic acid, 1.00 g L^−1 acetic acid, 0.16 g L^−1 glycerin, 0.4 g L^−1 urea, and 5.0 g L^−1 glucose) and adjusted to pH 4.2 with 1N hydrochloric acid. To evaluate the impact of MIC on DPV tissue permeability, 450 μL of a mixture containing 182 µM (60 μg g^−1) DPV and 63 mM (30 mg g^−1) MIC was added to the apical compartment and compared to 182 µM (60 μg g^−1) DPV alone. […] One half of the tissue sample was fixed in 10% formalin for subsequent histological evaluation, while the other half was used for drug quantification. To quantify drug tissue levels, each tissue sample was digested overnight in 2 mL Solvable held at 50 °C. […] Samples were then cooled to room temperature and 1.5 mL of each sample was used for quantification. To quantify ^3H-DPV and ^14C-mannitol, each vial of collected sample was mixed with 2 mL scintillation cocktail and analyzed on an LS6500 liquid scintillation counter. Papp was calculated using Equation (2) as described above.

Papp at 360 min, 182 µM: 0.88 ± 0.53 ×10⁻⁶ cm/s
Compound: Cc1cc(C)c(Nc2ccnc(Nc3ccc(C#N)cc3)n2)c(C)c1 [DPV, dapivirine]
